Data published in patent publication US11649242B2, “Pyrrolopyrrole compositions as pyruvate kinase (PKR) activators” (FORMA Therapeutics, Inc., priority 2017, dated 2023).

How the values were obtained:
Type in all cases: biochemical
PKR(wt) = PKR(wt) (Homo sapiens, UniProt P30613); assay: Luminescence Assay Protocol (Kinase Glo Plus), PKR(Wt/without FBP); settings: without FBP; for AC50: gmean, read-out: G - AC50 LUM KGP woFBP AC50 μM gmean; for activation at 1.54 µM: read-out: I - AC50 LUM KGP woFBP % Fold @ 1.54 μM mean; for Emax: read-out: H - AC50 LUM KGP woFBP MAX % FOLD mean
Protocol: (§1) Example 47: PKR(Wt/without FBP), PKR(G332S/with FBP), PKR(R510Q/without FBP)
(§2) The phosphorylation of Adenosine-5′-diphosphate (ADP) by various mutants of PKR was determined by the Kinase Glo Plus Assay (Promega) in the presence or absence of FBP [D-Fructose-1,6-diphosphate; BOC Sciences, CAS: 81028-91-3] as follows. Unless otherwise indicated, all reagents were purchased from Sigma-Aldrich. All reagents were prepared in buffer containing 50 mM Tris-HCl, 100 mM KCl, 5 mM MgCl2, and 0.01% Triton X100, 0.03% BSA, and 1 mM DTT. Enzyme and PEP [Phospho(enol) pyruvic acid] were added at 2× to all wells of an assay-ready plate containing serial dilutions of test compounds or DMSO vehicle. Final enzyme concentrations for PKR(wt), PKR(R510Q), and PKR(G332S) were 0.8 nM, 0.8 nM, and 10 nM respectively. Final PEP concentration was 100 μM. The Enzyme/PEP mixture was incubated with compounds for 30 minutes at RT before the assay was initiated with the addition of 2×ADP [Adenosine-5′-diphosphate] and KinaseGloPlus. Final concentration of ADP was 100 μM. […] For assays containing FBP, that reagent is added at 30 μM upon reaction initiation. Reactions were allowed to progress for 45 minutes at RT until luminescence was recorded by the BMG PHERAstar FS Multilabel Reader. All compounds were tested in triplicate at concentrations ranging from 42.5 μM to 2.2 nM in 0.83% DMSO.
(§3) Luminescence values were converted to % Fold increase by normalizing to the average of the DMSO control and multiplying by 100. Max, min, slope and AC50 were determined by the standard four parameter fit algorithm of ActivityBase XE Runner. Compounds were evaluated with three parameters—AC50, MAX % Fold, and % Fold@1.54 μM (FIG. 1). The AC50 value for a compound is the concentration […] corresponding to the midway between the maximum and minimum values of the four parameter logistic curve fit (i.e., at which the % fold increase along the four parameter logistic curve fit is halfway between MAX % Fold and MIN % Fold (% Fold Midpoint)), MAX % Fold is the highest fold increase observed at any concentration of compound, and % Fold@1.54 μM is the fold increase at a compound concentration of 1.54 μM. The parameter % Fold@1.54 μM was selected to capture elements of both the AC50 and MAX % Fold and to provide a ranking based on both potency and effect. The compound concentration of 1.54 μM was chosen as one that can optimally differentiate the set of compounds based on the range of activities observed.
(§4) As set forth in Tables 6 and 7 below, AC50 values (columns A, D, G) are defined as follows: ≤0.1 μM (+++); >0.1 μM and ≤1.0 μM (++); >1.0 μM and ≤40 μM (+); >40 μM (0). Max % FOLD values (columns B, E, H) are defined as follows: ≤75% (+); >75% and ≤250% (++); >250% and ≤500% (+++). % Fold@1.54 μM values (columns C, F, I) are defined as follows: ≤75% (+); >75% and ≤250% (++); >250% and ≤500% (+++).

PKR(G332S) = PKR(G332S) (Homo sapiens, UniProt P30613, G332S); assay: Luminescence Assay Protocol (Kinase Glo Plus), PKR(G332S/with FBP); settings: PKRG332S, with FBP; for AC50: gmean, read-out: A - AC50 LUM KGP FBP AC50 μM gmean; for activation at 1.54 µM: read-out: C - AC50 LUM KGP FBP % Fold @ 1.54 μM mean; for Emax: read-out: B - AC50 LUM KGP FBP MAX % FOLD mean
Protocol: as §1, §2, §3, §4

PKR(R510Q) = PKR(R510Q) (Homo sapiens, UniProt P30613, R510Q); assay: Luminescence Assay Protocol (Kinase Glo Plus), PKR(R510Q/without FBP); settings: PKRR510Q, without FBP; for AC50: gmean, read-out: D - AC50 LUM KGP woFBP AC50 μM gmean; for activation at 1.54 µM: read-out: F - AC50 LUM KGP woFBP % Fold @ 1.54 μM mean; for Emax: read-out: E - AC50 LUM KGP woFBP MAX % FOLD mean
Protocol: as §1, §2, §3, §4

[1] = highest % fold increase at any concentration

PKR(G332S), sequence (P30613 whole entry G332S): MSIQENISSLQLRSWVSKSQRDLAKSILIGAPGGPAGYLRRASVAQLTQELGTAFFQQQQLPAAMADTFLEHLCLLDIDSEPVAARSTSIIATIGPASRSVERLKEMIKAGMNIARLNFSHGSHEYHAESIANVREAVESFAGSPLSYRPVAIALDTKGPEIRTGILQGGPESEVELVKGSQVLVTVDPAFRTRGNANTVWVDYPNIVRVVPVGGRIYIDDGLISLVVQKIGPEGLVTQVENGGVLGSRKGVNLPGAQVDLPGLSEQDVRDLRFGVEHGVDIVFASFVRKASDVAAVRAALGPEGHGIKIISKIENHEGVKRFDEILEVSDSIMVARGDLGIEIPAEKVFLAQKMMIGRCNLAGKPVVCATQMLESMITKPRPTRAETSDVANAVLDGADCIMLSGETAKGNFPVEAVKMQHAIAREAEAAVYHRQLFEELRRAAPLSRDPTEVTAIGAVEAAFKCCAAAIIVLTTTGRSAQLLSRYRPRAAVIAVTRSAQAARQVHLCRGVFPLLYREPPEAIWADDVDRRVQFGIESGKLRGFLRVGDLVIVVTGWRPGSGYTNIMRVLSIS
PKR(R510Q), sequence (P30613 whole entry R510Q): as the sequence (P30613 whole entry G332S) above, with S332G, R510Q counted along it
PKR(wt), sequence (P30613 whole entry): as the sequence (P30613 whole entry G332S) above, with S332G counted along it

Row | Compound | I - AC50 LUM KGP woFBP % Fold @ 1.54 μM mean (PKR(wt); compound 1.54 μM) | AC50 (PKR(wt)) [µM] | H - AC50 LUM KGP woFBP MAX % FOLD mean (PKR(wt); [1]) | C - AC50 LUM KGP FBP % Fold @ 1.54 μM mean (PKR(G332S); compound 1.54 μM) | AC50 (PKR(G332S)) [µM] | B - AC50 LUM KGP FBP MAX % FOLD mean (PKR(G332S); [1]) | F - AC50 LUM KGP woFBP % Fold @ 1.54 μM mean (PKR(R510Q); compound 1.54 μM) | AC50 (PKR(R510Q)) [µM] | E - AC50 LUM KGP woFBP MAX % FOLD mean (PKR(R510Q); [1]) | activation at 1.54 µM (PKR(wt); compound 1.54 μM) [%] | Emax (PKR(wt); [1]) [%] | activation at 1.54 µM (PKR(G332S); compound 1.54 μM) [%] | Emax (PKR(G332S); [1]) [%] | activation at 1.54 µM (PKR(R510Q); compound 1.54 μM) [%] | Emax (PKR(R510Q); [1]) [%]
1 | O=C(C1CCCOC1)N1CC2=C(C1)CN(S(=O)(=O)c1ccccn1)C2 (single isomer, unassigned) [Example 45, (S or R)-(5-(pyridin-2-ylsulfonyl)-3,4,5,6-tetrahydropyrrolo[3,4-c]pyrrol-2(1H)-yl)(tetrahydro-2H-pyran-3-yl)methanone] | ++ (>75% and ≤250% (++)) | 0.1 to 1 | +++ (>250% and ≤500% (+++)) | ++ (>75% and ≤250% (++)) | 0.1 to 1 | ++ (>75% and ≤250% (++)) | ++ (>75% and ≤250% (++)) | 1 to 40 | +++ (>250% and ≤500% (+++)) |  |  |  |  |  | 
2 | CC(C)(CO)C(=O)N1CC2=C(C1)CN(S(=O)(=O)c1ccc(OC(F)F)cc1)C2 [Example 7, 1-(5-((4-(difluoromethoxy)phenyl)sulfonyl)-3,4,5,6-tetrahydropyrrolo[3,4-c]pyrrol-2(1H)-yl)-3-hydroxy-2,2-dimethylpropan-1-one] |  | 0.1 to 1 |  |  | ≤ 0.1 |  |  | 0.1 to 1 |  | 75 to 250 | 75 to 250 |  |  |  | 
3 | O=C([C@@H]1CCOC1)N1CC2=C(C1)CN(S(=O)(=O)c1ccc(OC(F)F)cc1)C2 [Example 14, (R)-(5-((4-(difluoromethoxy)phenyl)sulfonyl)-3,4,5,6-tetrahydropyrrolo[3,4-c]pyrrol-2(1H)-yl)(tetrahydrofuran-3-yl)methanone] |  | 0.1 to 1 |  |  | 0.1 to 1 |  |  | 1 to 40 |  | 250 to 500 | 250 to 500 | 75 to 250 | 75 to 250 | 75 to 250 | 250 to 500
4 | O=C(C1CCCOC1)N1CC2=C(C1)CN(S(=O)(=O)c1ccc3ncsc3c1)C2 (centres unmarked) [Example 15, (5-(benzo[d]thiazol-6-ylsulfonyl)-3,4,5,6-tetrahydropyrrolo[3,4-c]pyrrol-2(1H)-yl)(tetrahydro-2H-pyran-3-yl)methanone] |  | 0.1 to 1 |  |  | > 40 |  |  | 1 to 40 |  | 75 to 250 | 75 to 250 | 75 to 250 | 75 to 250 | 75 to 250 | 250 to 500
5 | O=C([C@H]1CCOC1)N1CC2=C(C1)CN(S(=O)(=O)c1ccc(OC(F)F)cc1)C2 [Example 16, (S)-(5-((4-(difluoromethoxy)phenyl)sulfonyl)-3,4,5,6-tetrahydropyrrolo[3,4-c]pyrrol-2(1H)-yl)(tetrahydrofuran-3-yl)methanone] |  | 0.1 to 1 |  |  | 0.1 to 1 |  |  | 1 to 40 |  | 75 to 250 | 250 to 500 | 75 to 250 | 75 to 250 | 75 to 250 | 250 to 500
6 | CC(C)(CO)C(=O)N1CC2=C(C1)CN(S(=O)(=O)c1ccc3ncsc3c1)C2 [Example 19, 1-(5-(benzo[d]thiazol-6-ylsulfonyl)-3,4,5,6-tetrahydropyrrolo[3,4-c]pyrrol-2(1H)-yl)-3-hydroxy-2,2-dimethylpropan-1-one] |  | 0.1 to 1 |  |  | > 40 |  |  | 0.1 to 1 |  | 75 to 250 | 75 to 250 | 75 to 250 | 75 to 250 | 75 to 250 | 250 to 500
